The values that follow come from US7601850B2, “Phenyl-thiophene type vitamin D receptor modulators” (Eli Lilly and Company, priority 2002, dated 2009).

Like-named read-outs stand apart in the source and are kept apart here. Bounds are passed on as bounds.

For series [1], the system named is KERtr cells. The experiment in a line: Keratinocyte proliferation assay (BrdU incorporation). Type of series: cell-based. The conditions noted are these: Homo sapiens, Keratinocyte, 72 h, KERtr human skin keratinocytes, 72 hr treatment, read-out: Kera. Prolif. IC50. The method, then:
6. The keratinocyte proliferation assay is described in the “Assay” section of the Description, infra.
5. The Keratinocyte Proliferation Assay
This Assay is indicative for the treatment of psoriasis.
(5) The Keratinocyte Proliferation Assay:
KERtr cells (Human skin keratinocyte transformed with a retrovirus vector, obtained from ATCC) were plated in 96-well flat-bottomed plates (3000 cells/well) in 100 µl keratinocyte serum free medium supplemented with bovine pituitary extract in the absence of EGF (Life Technologies, Rockville, Md.) and incubated at 37° C. for two days. The cells were treated with various concentrations of VDR ligands (ten-fold serial dilution from 10,000 nM to 0.1 nM in triplicate), dissolved in 100 µl keratinocyte serum free medium supplemented with bovine pituitary extract in the absence of EGF and incubated at 37° C. for 72 hr. […] Potency values (IC50) values were determined as the concentration (nM) of compound that elicited a half-maximal response.
On the technique in general: Incorporation of labelled thymidine or its analogues reports DNA synthesis.

The subject of series [2] is rat osteocalcin promoter. Nature of the series: OCN (osteocalcin) promoter assay in RG-15 (ROS 17/2.8) cells. The series is classed as cell-based. An outline of the steps:
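Rat osteoblast-like RG-15 (ROS 17/2.8) cells stably carry the rat osteocalcin promoter fused to luciferase. They were treated with compounds for 48 h in medium with 2% FBS and 0.01% DMSO. EC50 was derived from luciferase activity in cell lysates.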

Series [3] is described as follows: Mouse hypercalcemia assay (six day, serum ionized calcium). The series is classed as in vivo. The method, then: 5. The Mouse Hypercalcemia test is described in the “Assay” section of the Description, infra.
4. The Mouse Hypercalcemia Assay
The Mouse Hypercalcemia Assay is a six day hypercalcemia test for toxicity and selectivity. Acceptable test results are levels greater than 300 μg/kg/day. Preferred assay results are levels greater than 1000 μg/kg/day.
(4) Materials and Method for The Mouse Hypercalcemia Assay:
Weanling, virus-antibody-free, five to six weeks old female DBF mice (Harlan, Indianapolis, Ind.) are used for all the studies. Animals are allowed to acclimate to local vivarium conditions for 2 days. […] The animals then are divided into groups with 4-5 mice per group. Different doses of test compounds prepared in 10% Ethanol and 90% sesame oil are administered to mice orally via gavage for 6 days. 1α-25(OH)2D3 0.5 μg/kg/d was also given to one group of mice as the positive control. Serum ionized calcium is evaluated at 6 hours after the last dosing under isoflurane anesthesia by Ciba-Corning Ca++/PH Analyzer, (Model 634, Chiron Diagnostics Corp., East Walpole, Mass.). Raw data of group differences is assessed by analysis of variance (ANOVA) using Fisher's protected least significant difference (PLSD) where the significance level was P<0.05.

One may read the IC50 as the concentration that inhibits the measured activity by half. Consider `CCC(CC)(c1ccc(OCC(O)C(C)(C)C)c(C)c1)c1cc(C)c(CS(C)(=O)=O)s1` (single isomer, unassigned) [Ex. 11B], for which the concentration for half-maximal inhibition (IC50) in series [1] turned out to be 216 nM.
On the same count and under the same terms, the same measure for `CCC(CC)(c1ccc(OCS(C)(=O)=O)c(C)c1)c1cc(C)c(CCC(O)C(C)(C)C)s1` (single isomer, unassigned) [Ex. 15A]: 76 nM.
What is called EC50 is the concentration giving half of the maximal effect. In the case of `CCC(CC)(c1ccc(OCC(=O)O)c(C)c1)c1cc(C)c(CCC(O)C(C)(C)C)s1` (single isomer, unassigned) [Ex. 33A, 3′-[5-(3-hydroxy-4,4-dimethylpentyl)-4-methylthiophen-2-yl]-3′-[4-(carboxylmethoxy)-3-methylphenyl]pentane], the EC50 in series [2] is 43.5 nM. The “Mouse Hypercal” value in series [3] was >9000 µg/kg/day.
Turning to `CCC(CC)(c1ccc(OCC(=O)Nc2nnn[nH]2)c(C)c1)c1cc(C)c(CCC(O)C(C)(C)C)s1` (single isomer, unassigned) [Ex. 34, 3′-[5-(3-hydroxy-4,4-dimethylpentyl)-4-methylthiophen-2-yl]-3-[4-(tetrazol-5-yl-aminocarbonylmethoxy)-3-methylphenyl]pentane], the EC50 in series [2] came to 96.8 nM. Further, the “Mouse Hypercal” value in series [3] was 3000 µg/kg/day.
For the molecule `CCC(CC)(c1ccc(OCC(O)C(C)(C)C)c(C)c1)c1cc(C)c(C(=O)Nc2nnn[nH]2)s1` (single isomer, unassigned) [Ex. 36, 3′-[4-(2-hydroxy-3,3-dimethylbutoxy)-3-methylphenyl]-3′-[5-(tetrazol-5-yl-aminocarbonyl)-4-methylthiophen-2-yl]pentane], the EC50 in series [2] stood at 67.9 nM. Moreover, the “Mouse Hypercal” value in series [3] was 2000 µg/kg/day.
As to `CCC(CC)(c1ccc(OCC(O)C(C)(C)C)c(C)c1)c1cc(C)c(C(=O)NCCS(C)(=O)=O)s1` (single isomer, unassigned) [Ex. 39, 5-[1-ethyl-1-[4-(2-hydroxy-3,3-dimethyl-butoxy)-3-methylphenyl]propyl]-3-methylthiophene-2-carboxylic acid (2-methylsulfonyl-ethyl) amide], the half-maximal effective concentration (EC50) in series [2] was determined as 300 nM. Moreover, in series [1], the IC50 came out at 367 nM.
With `CCC(CC)(c1ccc(OCC(O)C(C)(C)C)c(C)c1)c1cc(C)c(C(=O)N(C)OC)s1` (single isomer, unassigned) [Ex. 43, 5-{1-Ethyl-1-[4-(2-hydroxy-3,3-dimethyl-butyoxy)-3-methyl-phenyl]-propyl}-3methyl-thiophene-2-carboxylic acid methoxy-methyl-amide], in series [2] (Rattus norvegicus), the concentration for a half-maximal effect (EC50) worked out at 19.7 nM. The “Mouse Hypercal” value in series [3] is 1000 µg/kg/day.
For the molecule `CCC(CC)(c1ccc(OCC(O)C(C)(C)C)c(C)c1)c1cc(C)c(C(=O)N(C)OC)s1` (single isomer, unassigned) [Ex. 44, 5-{1-Ethyl-1-[4-(2-hydroxy-3,3-dimethyl-butyoxy)-3-methyl-phenyl]-propyl}-3methyl-thiophene-2-carboxylic acid methoxy-methyl-amide], in series [2], the EC50 stood at 30.4 nM. The “Mouse Hypercal” value in series [3] is 1000 µg/kg/day.
As for `CCC(CC)(c1ccc(OCC(O)C(C)(C)C)c(C)c1)c1cc(C)c(C(=O)NCC(=O)O)s1` (single isomer, unassigned) [Ex. 48], the half-maximal inhibitory concentration (IC50) in series [1] turned out to be 71.5 nM.
As for `CCC(CC)(c1ccc(OCC(O)C(C)(C)C)c(C)c1)c1cc(C)c(C(=O)N[C@H](C)C(=O)OC)s1` (single isomer, unassigned) [Ex. 66, D-2-[(5-{1-Ethyl-1-[4-(2-hydroxy-3,3-dimethyl-butoxy)-3-methyl-phenyl]-propyl}-3-methyl-thiophene-2-carbonyl)-amino]-propionic acid methyl ester], the EC50 in series [2] was 28.4 nM. Further, the 50% inhibitory concentration (IC50) in series [1] came out at 277 nM.
With `CCC(CC)(c1ccc(OCC(O)C(C)(C)C)c(C)c1)c1ccc(C(=O)O)s1` (single isomer, unassigned) [Ex. 89, 3′-[4-(2-hydroxy-3,3-dimethylbutoxy)-3-methylphenyl]-3′-[5-carboxy-thiophen-2-yl]pentane], in series [2] (Rattus norvegicus), the EC50 came out at 314 nM. The half-inhibitory concentration (IC50) in series [1] worked out at 105 nM.
For `CCC(CC)(c1ccc(OCC(O)CO)c(C)c1)c1ccc(OCC(O)C(C)(C)C)c(C)c1` (centres unmarked) [BB, 3-(4-{1-Ethyl-1-[4-(2-hydroxy-3,3-dimethyl-butoxy)-3-methyl-phenyl]-10 propyl}-2-methyl-phenoxy)-propane-1,2-diol, reference compound], in series [3], the “Mouse Hypercal μg/Kg/d” value is listed as “>=20 μg/Kg/d”.
For `CCC(CC)(c1ccc(OCC(=O)C(C)(C)C)c(C)c1)c1ccc(OC[C@H](O)C(C)(C)C)c(C)c1` [EE, reference compound], the “Mouse Hypercal” value in series [3] is 1000 µg/kg/day.
As to `CCC(CC)(c1ccc(OCC(O)C(C)(C)C)c(C)c1)c1cc(C)c(C(=O)N(C)C)s1` (centres unmarked) [Ex. 4], the EC50 in series [2] (Rattus norvegicus) amounted to 147 nM. The IC50 in series [1] worked out at 122 nM.
`CCC(CC)(c1ccc(OCC(O)C(C)(C)C)c(C)c1)c1cc(C)c(C(=O)OC)s1` (centres unmarked) [Ex. 6A]: the IC50 in series [1] was 439 nM.
For `CCC(CC)(c1ccc(OCC(O)C(C)(C)C)c(C)c1)c1cc(C)c(CS(C)(=O)=O)s1` (centres unmarked) [Ex. 10], the EC50 in series [2] (Rattus norvegicus) stood at 51.3 nM. The IC50 in series [1] is 25 nM.
As for `CCC(CC)(c1ccc(OC[S+](C)[O-])c(C)c1)c1cc(C)c(CC[C@@H](O)C(C)(C)C)s1` (some centres unmarked) [Ex. 16], in series [2] (Rattus norvegicus), the EC50 worked out at 31 nM. In addition, the IC50 in series [1] was 257 nM.
Regarding `CCC(CC)(c1ccc(OS(C)(=O)=O)c(C)c1)c1cc(C)c(CC[C@@H](O)C(C)(C)C)s1` [Ex. 18], the EC50 in series [2] (Rattus norvegicus) came out at 11.2 nM. Further, in series [1], the concentration for half-maximal inhibition (IC50) was determined as 24.5 nM.
With `CCC(CC)(c1ccc(CCC(=O)O)c(C)c1)c1cc(C)c(CCC(O)C(C)(C)C)s1` (centres unmarked) [Ex. 29], the EC50 in series [2] (Rattus norvegicus) turned out to be 8.65 nM. For the same molecule, in series [1], the IC50 stood at 4.6 nM.
For `CCC(CC)(c1ccc(OCC(O)C(C)(C)C)c(C)c1)c1cc(C)c(COCC(=O)O)s1` (centres unmarked) [Ex. 124, 2-(5-{1-ethyl-1-[4-(2-hydroxy-3,3-dimethyl-butoxy)-3-methyl-phenyl]-propyl}-3-methyl-thiophen-2-yl-methoxy)acetic acid], in series [2] (Rattus norvegicus), the EC50 worked out at 101 nM. Further, the 50% inhibitory concentration (IC50) in series [1] turned out to be 216 nM.
`CCC(CC)(c1ccc(OCC(O)C(C)(C)C)c(C)c1)c1cc(C)c(S(=O)(=O)NCCC(=O)O)s1` (centres unmarked) [Ex. 142]: the half-inhibitory concentration (IC50) in series [1] was determined as 300 nM.
In the case of `CCC(CC)(c1ccc(OCC(=O)C(C)(C)C)c(C)c1)c1cc(C)c(S(=O)(=O)N(C)CCC(=O)O)s1` [Ex. 145], the concentration giving a half-maximal response (EC50) in series [2] (Rattus norvegicus) came out at 222 nM. For the same molecule, the 50% inhibitory concentration (IC50) in series [1] turned out to be 702 nM.
On to `CCc1cc(C(CC)(CC)c2ccc(S(=O)(=O)NCC(=O)O)s2)ccc1OCC(O)C(C)(C)C` (centres unmarked) [Ex. 155], for which the EC50 in series [2] (Rattus norvegicus) is 18.4 nM. Moreover, the IC50 in series [1] was determined as 788 nM.
Take `CCC(CC)(c1ccc(OCC(O)C(C)(C)C)c(C)c1)c1cc(C)c(S(=O)(=O)NC(C)=O)s1` (centres unmarked) [Ex. 158, 5-{1-Ethyl-1-[4-(2-hydroxy-3,3-dimethyl-butoxy)-3-methyl-phenyl]-propyl}-3-methyl-thiophene-2-sulfonic acid acetyl-amide]: the concentration giving a half-maximal response (EC50) in series [2] (Rattus norvegicus) stood at 85 nM. The half-maximal inhibitory concentration (IC50) in series [1] is 500 nM.
For `CCC(=O)NS(=O)(=O)c1sc(C(CC)(CC)c2ccc(OCC(O)C(C)(C)C)c(C)c2)cc1C` (centres unmarked) [Ex. 159, 5-{1-Ethyl-1-[4-(2-hydroxy-3,3-dimethyl-butoxy)-3-methyl-phenyl]-propyl}-3-methyl-thiophene-2-sulfonic acid propionyl-amide], the EC50 in series [2] (Rattus norvegicus) amounted to 89.7 nM. Further, the IC50 in series [1] stood at 234 nM.
As for `CCC(CC)(c1ccc(OCC(=O)C(C)(C)C)c(C)c1)c1cc(C)c(S(=O)(=O)NC(C)=O)s1` [Ex. 160, 5-{1-[4-(3,3-Dimethyl-2-oxo-butoxy)-3-methyl-phenyl]-1-ethyl-propyl}-3-methyl-thiophene-2-sulfonic acid acetyl-amide], in series [2] (Rattus norvegicus), the EC50 was 40.3 nM. Also, the IC50 in series [1] amounted to 1100 nM.
On to `CCC(CC)(c1ccc(OCC(O)C(C)(C)C)c(C)c1)c1cc(C)c(-c2n[nH]c(=S)o2)s1` (centres unmarked) [Ex. 173], for which the IC50 in series [1] came out at 478 nM.
`CCC(CC)(c1ccc(CCC(O)C(C)(C)C)c(C)c1)c1cc(C)c(C(=O)NCC(=O)O)s1` (centres unmarked) [Ex. 177, [(5-{1-Ethyl-1-[4-(3-hydroxy-4,4-dimethyl-pentyl)-3-methyl-phenyl]-propyl}-3-methyl-thiophene-2-carbonyl)-amino]-acetic acid]: in series [2] (Rattus norvegicus), the concentration for a half-maximal effect (EC50) came out at 46 nM. In addition, the IC50 in series [1] worked out at 81.3 nM.
On to `CCC(CC)(c1ccc(CCC(O)C(C)(C)C)c(C)c1)c1cc(C)c(S(=O)(=O)NCC(=O)O)s1` (centres unmarked) [Ex. 179, (5-{1-Ethyl-1-[4-(3-hydroxy-4,4-dimethyl-pentyl)-3-methyl-phenyl]-propyl}-3-methyl-thiophene-2-sulfonylamino)-acetic acid], for which the EC50 in series [2] (Rattus norvegicus) turned out to be 27.9 nM. Further, the concentration for half-maximal inhibition (IC50) in series [1] stood at 221 nM.
